From ChEMBL document CHEMBL1135950, “Decoding region bubble size and aminoglycoside antibiotic binding” (Bioorg Med Chem Lett, 2002) come the findings set out here.

SMILES strings stand for the structures.

Common to all, as to assay type: nucleic-acid assay, Homo sapiens
Assay [1] concerns the target Nucleic Acid. The assay can be described thus: Dissociation constant for binding to mitochondrial 12S rRNA construct M3 was determined.
The target of assay [2] is Nucleic Acid. The assay can be described thus: Dissociation constant for binding to mitochondrial 12S rRNA construct M5 was determined.
For assay [3], the target named is Nucleic Acid. The assay can be described thus: Dissociation constant for binding to mitochondrial 12S rRNA construct M4 was determined.
Assay [4] concerns the target Nucleic Acid. The assay can be described thus: Dissociation constant for binding to mitochondrial 12S rRNA construct M2 was determined.
Assay [5] concerns Nucleic Acid. The assay can be described thus: Dissociation constant for binding to mitochondrial 12S rRNA construct M1 was determined; NB= No binding.

For `NC[C@H]1O[C@H](O[C@H]2[C@H](O)[C@@H](O[C@H]3O[C@H](CO)[C@@H](O)[C@H](N)[C@H]3O)[C@H](N)C[C@@H]2N)[C@H](O)[C@@H](O)[C@@H]1O` [KANAMYCIN], the Kd turned out to be 2080 nM at Nucleic Acid [1], 2640 nM on Nucleic Acid [2], 13600 nM on Nucleic Acid [3] and 3460 nM at Nucleic Acid [4].
Turning to `NC[C@H]1O[C@H](O[C@H]2[C@H](O)[C@@H](O[C@H]3O[C@H](CO)[C@@H](O)[C@H](N)[C@H]3O)[C@H](N)C[C@@H]2N)[C@H](N)C[C@@H]1O` [TOBRAMYCIN], the Kd was found to be 430 nM at Nucleic Acid [1], 5370 nM at Nucleic Acid [2], 2910 nM at Nucleic Acid [3] and 3260 nM at Nucleic Acid [4].
For `CN(C)c1ccc2c(-c3ccc(C(=O)NCC4O[C@H](O[C@@H]5C(O)[C@H](O[C@@H]6C(O)[C@H](N)CC(N)[C@H]6O[C@H]6OC(CO)[C@@H](O)[C@H](O)C6N)O[C@@H]5CO)[C@H](N)C(O)[C@@H]4O)cc3C(=O)[O-])c3ccc(=[N+](C)C)cc-3oc2c1` (stereo partly specified), the dissociation constant (Kd) at Nucleic Acid [1] is 260 nM; in the assay on Nucleic Acid [5], “Not Active”; on Nucleic Acid [2], 330 nM; on Nucleic Acid [3], 750 nM; on Nucleic Acid [4] it was 270 nM.
Regarding `NC[C@@H]1O[C@H](O[C@H]2[C@@H](O)[C@H](O[C@@H]3[C@@H](O)[C@H](N)C[C@H](N)[C@H]3O[C@H]3O[C@H](CO)[C@@H](O)[C@H](O)[C@H]3N)O[C@@H]2CO)[C@H](N)[C@@H](O)[C@@H]1O` [PAROMOMYCIN], the equilibrium dissociation constant (Kd) at Nucleic Acid [1] stood at 440 nM; on Nucleic Acid [2] it was 5850 nM; at Nucleic Acid [3] it was 12600 nM; on Nucleic Acid [4] it was 3830 nM.
The like results for `NC[C@@H]1O[C@H](O[C@H]2[C@@H](O)[C@H](O[C@@H]3[C@@H](O)[C@H](N)C[C@H](N)[C@H]3O[C@H]3O[C@H](CN)[C@@H](O)[C@H](O)[C@H]3N)O[C@@H]2CO)[C@H](N)[C@@H](O)[C@@H]1O` [FRAMYCETIN] were, in that order, 120 nM, 3970 nM, 160 nM and 140 nM.

The term Kd denotes the concentration at which binding is half-saturated.
